Assay results reported in US10918733B2, “Lipopeptide- and lipoprotein-conjugates and its use” (HELMHOLTZ-ZENTRUM FUER INFEKTIONSFORSCHUNG GMBH, priority 2009, dated 2021).

Key:
[1] = tested on: Ova-specific CD4+CD25+Foxp3+ regulatory T cells; assay: Proliferation of T cells co-cultured with treated DC: regulatory T cells; assay type: cell-based, OTII mice; settings: DC incubated with 10 μg/mL for 24 h, co-culture 4 days
Method: (§1) T cell-mediated immune responses were investigated 96 h by measuring the proliferation of cells recovered from spleens after restimulation with BPPcysOva^mPEG. Non-Ag restimulated spleen cells were chosen as negative controls (FIG. 3). […] Taking into consideration that the BPPcysOva^mPEG has a promising effect on DC activation and maturation, next the capacity of these APC to stimulate the proliferation of antigen-specific CD8+ and CD4+ T cells was evaluated. Concentrations below 10^−8 M of BPPcysOva^mPEG were still able to induce an antigen specific proliferation of CD4+ T cells shown by the reduction of CFSE+ cells (FIGS. 4A-E).
(§2) FIG. 4: Proliferation of CD8+, CD4+ and regulatory T cells. DC were generated from bone marrow of C57BL/6 mice and incubated with 10 μg/mL of B) Ova C) Ova peptides, D) Ova in the presence of BPPcysMPEG and E) BPPcysOva^mPEG alone (A) Control) for 24 h. The following day, CD4+ T cells from spleens of OT2-tg animals or CD8+ T cells of OT1-tg animals were isolated. After staining with CFSE, CD8+, CD4+ T cells were co-cultured with adjuvant-treated DCs for 4 days. The decrease of CFSE-FITC expression due to cell division of CD8+ or CD4+ T cells were analysed by flow cytometric analysis. One representative experiment out of two is shown.

[2] = tested on: Ova-specific CD8+ T cells; assay: Proliferation of CFSE-stained T cells co-cultured with treated DC: CD8+ T cells; assay type: cell-based, OT1-tg mice; settings: DC incubated with 10 μg/mL for 24 h, co-culture 4 days
Method: as §1, §2

[3] = tested on: spleen cells; assay: Proliferation of spleen cells of immunized mice after in vitro restimulation with Ova, day 42 (Example 5); assay type: in vivo; settings: i.n., restimulation with Ova
Method: Experimental protocol: Spleens were removed and pooled for analysis of cellular immune responses. Cells were grown in RPMI 1640 supplemented with 10% fetal calf serum, 100 U/ml of penicillin, 50 μg/ml of streptomycin, 5×10^−5 M 2-mercaptoethanol and 1 mM L-glutamine (GIBCO BRL, Karlsruhe, Germany) and maintained at 37° C. in a humidified 5% CO2 atmosphere. Lymph node and spleen cell suspensions were adjusted to 5×10^6 cells/ml in complete medium, cells were seeded with 100 μl per well in a flat-bottomed 96-well microtiter plate (Nunc) and plates were incubated for 4 days in the presence of different concentrations of Ova. Each concentration was tested in triplicates. During the final 18 h of culture, 1 μCi of [^3H]thymidine (Amersham International, Freiburg, Germany) was added to each well. Cells were then harvested on paper filters (Filtermat A; Wallac, Freiburg, Germany) by using a cell harvester (Inotech, Wohlen, Switzerland), and the amount of incorporated [^3H]thymidine into the DNA of proliferating cells was determined by a β-scintillation counter (Wallac 1450, Micro-Trilux). The results are expressed as the arithmetic mean of [^3H]thymidine uptake in cpm.
T cell-mediated immune responses were investigated at day 42 by measuring the proliferation of cells recovered from spleens after in vitro restimulation with Ova. […]

Molecule	stimulation of proliferation of Ova-specific CD4+CD25+Foxp3+ regulatory T cells by treated DC [1]	stimulation of proliferation of Ova-specific CD8+ T cells by treated DC [2]	proliferative response of spleen cells, i.n. immunization [3]
CD4 peptide: Ova CD4 epitope peptide alone (KISQAVHAAHAEINEAG; UniProt P01012 323-339, looked up, fragment) [reference compound]	very efficiently	weak stimulation	–
LPS free Ova: EndoGrade Ovalbumin, Hyglos GmbH (protein, UniProt P01012 2-386, looked up, endotoxin-free, EndoGrade Ovalbumin, Hyglos GmbH) Ovalbumin: GSIGAASMEFCFDVFKELKVHHANENIFYCPIAIMSALAMVYLGAKDSTRTQINKVVRFDKLPGFGDSIEAQCGTSVNVHSSLRDILNQITKPNDVYSFSLASRLYAEERYPILPEYLQCVKELYRGGLEPINFQTAADQARELINSWVESQTNGIIRNVLQPSSVDSQTAMVLVNAIVFKGLWEKAFKDEDTQAMPFRVTEQESKPVQMMYQIGLFRVASMASEKMKILELPFASGTMSMLVLLPDEVSGLEQLESIINFEKLTEWTSSNVMEERKIKVYLPRMKMEEKYNLTSVLMAMGITDVFSSSANLSGISSAESLKISQAVHAAHAEINEAGREVVGSAEAGVDAASVSEEFRADHPFLFCIKHIATNAVLFFGRCVSP	–	–	failed to induce detectable cellular proliferation
